Assay results from patent publication US9920010B2, “CXCR7 receptor modulators” (IDORSIA PHARMACEUTICALS LTD, priority 2013, dated 2018).

Biological target: T1, CXCR7 (Homo sapiens, UniProt P25106)
T1 construct: host or cells: CHO-K1 (PathHunter CHO-K1 CXCR7 b-arrestin cell line, stably transfected)
Experiment: PathHunter CHO-K1 CXCR7 b-arrestin recruitment assay (CXCR7 agonistic activity)
Assay type: cell-based
Conditions: PathHunter CHO-K1 CXCR7 b-arrestin cell line
Outline: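 Stable CHO-K1 line with C-terminally ProLink-tagged CXCR7 and β-arrestin 2–EA fusion; β-arrestin recruitment restores β-gal activity, read by chemiluminescence after 1 h RT detection. Cells seeded 24 h, starved in OPTIMEM 3–4 h, exposed to compounds 90 min at 37 °C in HBSS/HEPES/BSA. Geometric-mean EC50 from repeated measurements.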

T1 sequence (P25106 whole entry): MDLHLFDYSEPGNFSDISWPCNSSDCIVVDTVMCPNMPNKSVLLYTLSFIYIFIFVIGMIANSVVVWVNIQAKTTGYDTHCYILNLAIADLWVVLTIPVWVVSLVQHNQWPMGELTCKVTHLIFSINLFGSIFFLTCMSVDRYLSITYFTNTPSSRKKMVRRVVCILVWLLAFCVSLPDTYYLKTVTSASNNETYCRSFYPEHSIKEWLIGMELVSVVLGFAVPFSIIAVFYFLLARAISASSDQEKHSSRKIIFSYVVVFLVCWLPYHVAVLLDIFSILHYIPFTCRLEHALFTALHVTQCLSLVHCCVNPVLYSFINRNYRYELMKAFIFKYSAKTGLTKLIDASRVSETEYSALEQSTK
T1 sequence (P32121 whole entry partner): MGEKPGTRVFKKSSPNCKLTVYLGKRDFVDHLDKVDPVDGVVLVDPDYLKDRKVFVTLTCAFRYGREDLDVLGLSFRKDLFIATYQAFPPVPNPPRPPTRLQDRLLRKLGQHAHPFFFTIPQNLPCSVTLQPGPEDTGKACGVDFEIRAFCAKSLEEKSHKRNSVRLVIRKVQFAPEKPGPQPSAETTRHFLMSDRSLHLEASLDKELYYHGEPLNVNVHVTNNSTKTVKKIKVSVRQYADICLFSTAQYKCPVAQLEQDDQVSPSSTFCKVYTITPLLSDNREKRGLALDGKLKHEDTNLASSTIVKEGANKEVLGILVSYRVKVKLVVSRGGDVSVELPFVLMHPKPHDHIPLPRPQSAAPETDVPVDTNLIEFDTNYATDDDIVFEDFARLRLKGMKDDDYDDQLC

Row | EC50 [nM] | Structure (SMILES)
1 | 66 | NCCN(Cc1ccc(C(F)(F)F)cc1)C(=O)CNc1cccc2c1CCN(CC1CC1)C2 [Example 73, N-(2-Amino-ethyl)-2-(2-cyclopropylmethyl-1,2,3,4-tetrahydro-isoquinolin-5-ylamino)-N-(4-trifluoromethyl-benzyl)-acetamide]
2 | 14 | C=CCN(C)CCN(Cc1ccccc1C(F)(F)F)C(=O)CCc1cccc2c1CN(CC=C)CC2 [compound 467, N-[2-(Allyl-methyl-amino)-ethyl]-3-(2-allyl-1,2,3,4-tetrahydro-isoquinolin-8-yl)-N-(2-trifluoromethyl-benzyl)-propionamide]
3 | 33 | C=CCOC(=O)N1CCc2c(cccc2NCC(=O)N(CCNC)Cc2ncccc2C(F)(F)F)C1 [compound 422, 5-({[(2-Methylamino-ethyl)-(3-trifluoromethyl-pyridin-2-ylmethyl)-carbamoyl]-methyl}-amino)-3,4-dihydro-1H-isoquinoline-2-carboxylic acid allyl ester]
4 | 34 | CN(C)CCN(Cc1ccccc1)C(=O)CNc1cccc2c1CN(CC1CC1)CC2 [compound 187, N-Benzyl-2-(2-cyclopropylmethyl-1,2,3,4-tetrahydro-isoquinolin-8-ylamino)-N-(2-dimethylamino-ethyl)-acetamide]
5 | 91 | CC(C)N1CCc2cccc(NCC(=O)N(CCN(C)C)Cc3ccccc3)c2C1 [compound 186]
6 | 133 | CCN1CCc2cccc(OC(C)C(=O)N(CCN(C)C)Cc3ccccc3C(F)(F)F)c2C1 (stereo not drawn) [compound 548]
7 | 15 | CCN1CCc2cccc(NCC(=O)N(CCNC)Cc3ccccc3C(F)(F)F)c2C1 [compound 444, 2-(2-Ethyl-1,2,3,4-tetrahydro-isoquinolin-8-ylamino)-N-(2-methylamino-ethyl)-N-(2-trifluoromethyl-benzyl)-acetamide]
8 | 4 | CNCCN(Cc1ccccc1Cl)C(=O)CNc1cccc2c1CCN(CC1CC1)C2 [compound 446, N-(2-Chloro-benzyl)-2-(2-cyclopropylmethyl-1,2,3,4-tetrahydro-isoquinolin-5-ylamino)-N-(2-methylamino-ethyl)-acetamide]
9 | 429 | COCCN1CCc2c(CCC(=O)N(CCN(C)C(=O)OC(C)(C)C)Cc3ccccc3C(F)(F)F)cccc2C1 [Example 337, {2-[{3-[2-(2-Methoxy-ethyl)-1,2,3,4-tetrahydro-isoquinolin-5-yl]-propionyl}-(2-trifluoromethyl-benzyl)-amino]-ethyl}-methyl-carbamic acid tert-butyl ester]
10 | 0.6 | CCN1CCc2c(/C=C/C(=O)N(CCN(C)C)Cc3ccccc3C(F)(F)F)cccc2C1 [compound 149, (E)-N-(2-Dimethylamino-ethyl)-3-(2-ethyl-1,2,3,4-tetrahydro-isoquinolin-5-yl)-N-(2-trifluoromethyl-benzyl)-acrylamide]
11 | 67 | CN(C)CCN(Cc1ccccc1C(F)(F)F)C(=O)CNc1cccc2c1CCN(c1ccccc1)C2 [Example 373, N-(2-Dimethylamino-ethyl)-2-(2-phenyl-1,2,3,4-tetrahydro-isoquinolin-5-ylamino)-N-(2-trifluoromethyl-benzyl)-acetamide]
12 | 154 | CN(C)CCN(Cc1ccccc1)C(=O)CNc1cccc2c1CCN(CCC(C)(C)C)C2 [compound 120]
13 | 52 | CC(=O)N1CCc2c(cccc2NCC(=O)N(CCN(C)C)Cc2ccccc2)C1 [Example 108, 2-(2-Acetyl-1,2,3,4-tetrahydro-isoquinolin-5-ylamino)-N-benzyl-N-(2-dimethylamino-ethyl)-acetamide]
14 | 27 | CNCCN(Cc1ncccc1C(F)(F)F)C(=O)CNc1cccc2c1CCN(C(=O)OCCF)C2 [compound 425, 5-({[(2-Methylamino-ethyl)-(3-trifluoromethyl-pyridin-2-ylmethyl)-carbamoyl]-methyl}-amino)-3,4-dihydro-1H-isoquinoline-2-carboxylic acid 2-fluoro-ethyl ester]
15 | 230 | CN(C)CCN(Cc1cnc(N(C)C)nc1)C(=O)CNc1cccc2c1CCN(CC1CC1)C2 [Example 272, 2-(2-Cyclopropylmethyl-1,2,3,4-tetrahydro-isoquinolin-5-ylamino)-N-(2-dimethylamino-ethyl)-N-(2-dimethylamino-pyrimidin-5-ylmethyl)-acetamide]
16 | 100 | CN(C)CCN(Cc1ccccc1C(F)(F)F)C(=O)CNc1cccc2c1CN(C(N)=O)CC2 [compound 562]
17 | 376 | CN1CCC(N(Cc2ccccc2C(F)(F)F)C(=O)CCc2cccc3c2CCN(C(=O)OC(C)(C)C)C3)CC1 [Example 100, 5-{2-[(1-Methyl-piperidin-4-yl)-(2-trifluoromethyl-benzyl)-carbamoyl]-ethyl}-3,4-dihydro-1H-isoquinoline-2-carboxylic acid tert-butyl ester]

Row | EC50 [nM] | Structure (SMILES)
18 | 36 | CCN1CCc2cccc(NCC(=O)N(CCN3CCCC3)Cc3ccccc3)c2C1 [compound 509, N-Benzyl-2-(2-ethyl-1,2,3,4-tetrahydro-isoquinolin-8-ylamino)-N-(2-pyrrolidin-1-yl-ethyl)-acetamide]
19 | 6 | CC1Cc2c(cccc2NCC(=O)N(CCN(C)C)Cc2ccccc2C(F)(F)F)CN1CC1CC1 (racemic) [Example 212, rac-2-((2-(Cyclopropylmethyl)-3-methyl-1,2,3,4-tetrahydroisoquinolin-5-yl)amino)-N-(2-(dimethylamino)ethyl)-N-(2-(trifluoromethyl)benzyl)acetamide]
20 | 6 | O=C(CNc1cccc2c1CCN(CC1CC1)C2)N(CCN1CCCC1)Cc1ccc(F)cc1Cl [Example 50, N-(2-Chloro-4-fluoro-benzyl)-2-(2-cyclopropylmethyl-1,2,3,4-tetrahydro-isoquinolin-5-ylamino)-N-(2-pyrrolidin-1-yl-ethyl)-acetamide]
21 | 44 | CN(C)CCN(Cc1ccccc1C(F)(F)F)C(=O)CNc1cccc2c1CCN(CC#N)C2 [Example 364, 2-(2-Cyanomethyl-1,2,3,4-tetrahydro-isoquinolin-5-ylamino)-N-(2-dimethylamino-ethyl)-N-(2-trifluoromethyl-benzyl)-acetamide]
22 | 8 | O=C(CNc1cccc2c1CCN(CC1CC1)C2)N(CCN1CCC(F)(F)CC1)Cc1ncccc1C(F)(F)F [Example 279, 2-(2-Cyclopropylmethyl-1,2,3,4-tetrahydro-isoquinolin-5-ylamino)-N-[2-(4,4-difluoro-piperidin-1-yl)-ethyl]-N-(3-trifluoromethyl-pyridin-2-ylmethyl)-acetamide]
23 | 69 | CN(C)CCN(Cc1ccccc1)C(=O)CNc1cccc2c1CN(C)CC2 [compound 182]
24 | 132 | CCC(=O)N1CCc2c(cccc2NCC(=O)N(CCN(C)C)Cc2ccc(C(F)(F)F)cc2)C1 [Example 34, N-(2-Dimethylamino-ethyl)-2-(2-propionyl-1,2,3,4-tetrahydro-isoquinolin-5-ylamino)-N-(4-trifluoromethyl-benzyl)-acetamide]
25 | 6 | CC1c2cccc(NCC(=O)N(CCN(C)C)Cc3ccccc3C(F)(F)F)c2CCN1CC1CC1 (single isomer, unassigned) [Example 211b, (R)- or (S)-2-((2-(Cyclopropylmethyl)-1-methyl-1,2,3,4-tetrahydroisoquinolin-5-yl)amino)-N-(2-(dimethylamino)ethyl)-N-(2-(trifluoromethyl)benzyl)acetamide]
26 | 135 | CCC(=O)N1CCc2c(cccc2NCC(=O)N(CCc2ccccc2)CCN(C)C)C1 [Example 17, N-(2-Dimethylamino-ethyl)-N-phenethyl-2-(2-propionyl-1,2,3,4-tetrahydro-isoquinolin-5-ylamino)-acetamide]
27 | 16 | CCC(=O)N1CCc2c(cccc2NCC(=O)N(CCN(C)C)Cc2ccccc2F)C1 [Example 23, N-(2-Dimethylamino-ethyl)-N-(2-fluoro-benzyl)-2-(2-propionyl-1,2,3,4-tetrahydro-isoquinolin-5-ylamino)-acetamide]
28 | 334 | COCCN1CCc2c(/C=C/C(=O)N(CCC(C)(C)O)Cc3ccccc3C(F)(F)F)cccc2C1 [Example 325, (E)-N-(3-Hydroxy-3-methyl-butyl)-3-[2-(2-methoxy-ethyl)-1,2,3,4-tetrahydro-isoquinolin-5-yl]-N-(2-trifluoromethyl-benzyl)-acrylamide]
29 | 52 | CC(C)CCN(Cc1ccccc1C(F)(F)F)C(=O)CNc1cccc2c1CCN(CC1CC1)C2 [Example 48, 2-(2-Cyclopropylmethyl-1,2,3,4-tetrahydro-isoquinolin-5-ylamino)-N-(3-methyl-butyl)-N-(2-trifluoromethyl-benzyl)-acetamide]
30 | 5 | Cc1cccc(CN(CCN(C)C)C(=O)CNc2cccc3c2CCN(CC2CC2)C3)n1 [Example 259, 2-(2-Cyclopropylmethyl-1,2,3,4-tetrahydro-isoquinolin-5-ylamino)-N-(2-dimethylamino-ethyl)-N-(6-methyl-pyridin-2-ylmethyl)-acetamide]
31 | 359 | CCN1CCc2cccc(NCC(=O)N(CCN(C)C)Cc3cncc(Cl)c3)c2C1 [compound 533]
32 | 277 | COCCN1CCc2c(CCC(=O)N(CCN3CCC(F)(F)CC3)Cc3ncccc3C(F)(F)F)cccc2C1 [Example 340, N-[2-(4,4-Difluoro-piperidin-1-yl)-ethyl]-3-[2-(2-methoxy-ethyl)-1,2,3,4-tetrahydro-isoquinolin-5-yl]-N-(3-trifluoromethyl-pyridin-2-ylmethyl)-propionamide]
33 | 1 | CCN(CC)CCN(Cc1ccccc1C(F)(F)F)C(=O)CNc1cccc2c1CCN(CC1CC1)C2 [Example 60, 2-(2-Cyclopropylmethyl-1,2,3,4-tetrahydro-isoquinolin-5-ylamino)-N-(2-diethylamino-ethyl)-N-(2-trifluoromethyl-benzyl)-acetamide]
